According to patent US11124500B2, “Disubstituted pyrazole compounds” (Eli Lilly and Company, priority 2019, dated 2021):

What was measured:
[1] = target: human KHK-C (Homo sapiens (Human), UniProt P50053); assay: KHK enzyme activity assay, human KHK-C (F1P production, RapidFire MS); format: biochemical; conditions: fructose 250 μM, ATP 150 μM; average ± SEM; read-out: hKHK-C IC50
Description: (§1) KHK Enzyme Activity Assay for Human KHK-C and Human KHK-A
(§2) The intrinsic potency for inhibition of KHK C or A activity may be measured using an enzymatic assay which measures the production of FIP. Compounds are prepared in DMSO and tested in a 10-point concentration curve, to create 3-fold serial dilutions of the compounds in a 96-well plate ranging from 20 μM to 1.02 nM. Enzyme is prepared in assay buffer [50 mM 4-(2-hydroxyethyl)piperazine-1-ethanesulfonic acid (HEPES), 10 mM potassium chloride, 100 mM magnesium chloride, 2 mM tris(2-carboxyethyl)phosphine (TCEP), 0.01% n-octyl glucoside] and incubated with compounds at RT for 15 min. The reaction is carried out in 100 μL volumes containing substrate concentrations of fructose (250 μM for KHK-C assay and 1.25 mM for KHK-A assay) and ATP (150 μM for both isoforms); which are further incubated at RT for 20 min. The reaction is then halted by the addition of stop buffer; consisting of 0.2% formic acid and 1 μg/ml ^13C6-fructose-6-phosphate (^13C6-F6P) internal standard. Plates are stored in −20° C. until RapidFire MS analysis.
(§3) RapidFire MS Analysis for Quantitation of F1P
(§4) An Agilent 300 RapidFire automated extraction system (Agilent, Santa Clara, Calif.) with three HPLC quaternary pumps is coupled to an Agilent 6495 triple quadrupole mass spectrometer (Agilent Technologies, Santa Clara, Calif.) equipped with an electrospray ionization (ESI) interface source. The RapidFire Mass Spec system is equipped with a reusable RapidFire C18 (type C) solid-phase extraction (SPE) cartridge (G9205 Å).
(§5) Solvent A, used for sample loading and washing, is 6 mM octylamine (Acros Organics 129495000) brought to pH 5.0 using acetic acid. Solvent B, used for sample elution, is 20% water in ACN containing 0.1% formic acid. Samples are sequentially analyzed by aspirating 10 μL onto the collection loop under vacuum directly from multiwell plates. The 10 μL of sample is loaded onto the C18 cartridge and washed using solvent A at a flow rate of 1.25 mL/min for 5000 ms. The retained analytes are then eluted to the mass spectrometer using solvent B at a flow rate of 1.25 mL/min for 5000 ms. The system is re-equilibrated using solvent at flow rate of 1.25 mL/min for 2000 ms.
(§6) The triple quadrupole mass spectrometer is equipped with an ESI source and analytes are monitored using selected reaction monitoring (SRM) in negative mode [M−H]−. F1P is monitored at m/z 259.02/96.9 and ^13C6-fructose-6-phosphate is monitored at m/z 264.99/97. The area ratio values for F1P is calculated using ^13C6-fructose-6-phospate as internal standard.

[2] = target: human KHK-A (Homo sapiens (Human), UniProt P50053); assay: KHK enzyme activity assay, human KHK-A (F1P production, RapidFire MS); format: biochemical; conditions: fructose 1.25 mM, ATP 150 μM; average ± SEM; read-out: hKHK-A IC50
Description: as §1, §2, §3, §4, §5, §6

Chain of human KHK-A (P50053 other isoform, or with tags, fused parts or gaps): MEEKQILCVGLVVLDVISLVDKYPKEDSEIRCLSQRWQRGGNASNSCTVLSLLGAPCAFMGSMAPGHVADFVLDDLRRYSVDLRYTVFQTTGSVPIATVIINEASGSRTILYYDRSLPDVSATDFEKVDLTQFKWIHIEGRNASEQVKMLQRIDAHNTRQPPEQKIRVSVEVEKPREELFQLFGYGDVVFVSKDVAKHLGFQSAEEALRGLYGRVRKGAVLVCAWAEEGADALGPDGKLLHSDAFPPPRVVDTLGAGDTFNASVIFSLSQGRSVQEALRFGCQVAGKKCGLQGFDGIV
Chain of human KHK-C (P50053 whole entry): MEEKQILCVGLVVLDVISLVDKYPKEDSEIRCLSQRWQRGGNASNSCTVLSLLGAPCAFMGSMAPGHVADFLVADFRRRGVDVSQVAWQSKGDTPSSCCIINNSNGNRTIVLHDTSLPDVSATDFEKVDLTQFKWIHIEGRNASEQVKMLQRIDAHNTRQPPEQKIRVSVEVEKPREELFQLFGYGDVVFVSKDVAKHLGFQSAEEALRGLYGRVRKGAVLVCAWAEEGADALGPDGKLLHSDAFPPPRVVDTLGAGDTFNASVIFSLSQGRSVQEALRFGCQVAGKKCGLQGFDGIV

Compound	IC50 [1]	IC50 [2]
C[C@H]1CCN1c1nc(-c2cnn(CC(O)CO)c2)cc(C(F)(F)F)c1C#N (stereo partly drawn) [Example 24, 6-[1-(2,3-Dihydroxypropyl)pyrazol-4-yl]-2-[(2S)-2-methylazetidin-1-yl]-4-(trifluoromethyl)pyridine-3-carbonitrile]	0.00791 µM	0.00729 µM
C[C@H]1CCN1c1nc(-c2cn[nH]c2)cc(C(F)(F)F)c1C#N [Example 25, 2-[(2S)-2-Methylazetidin-1-yl]-6-(1H-pyrazol-4-yl)-4-(trifluoromethyl)pyridine-3-carbonitrile]	0.0136 ± 0.0072 µM	0.0169 ± 0.0097 µM
C[C@H]1CCN1c1nc(-c2cnn(C3CCOCC3)c2)cc(C(F)(F)F)c1C#N [Example 26, 2-[(2S)-2-Methylazetidin-1-yl]-6-(1-tetrahydropyran-4-ylpyrazol-4-yl)-4-(trifluoromethyl)pyridine-3-carbonitrile]	0.0284 µM	0.0222 µM
C[C@H]1CCN1c1nc(-c2cnn(C3CCNCC3O)c2)cc(C(F)(F)F)c1C#N (stereo partly drawn) [Example 27, 6-[1-(3-Hydroxy-4-piperidyl)pyrazol-4-yl]-2-[(2S)-2-methylazetidin-1-yl]-4-(trifluoromethyl)pyridine-3-carbonitrile]	0.00921 µM	0.00463 µM
C[C@H]1CCN1c1nc(-c2cnn(CC(=O)NCCN)c2)cc(C(F)(F)F)n1 [Example 28, N-(2-Aminoethyl)-2-[4-[2-[(2S)-2-methylazetidin-1-yl]-6-(trifluoromethyl)pyrimidin-4-yl]pyrazol-1-yl]acetamide]	0.068 µM	0.051 µM
C[C@H]1CN(C(=O)Cn2cc(-c3cc(C(F)(F)F)nc(N4CC[C@@H]4C)n3)cn2)CCN1 [Example 29, 2-[4-[2-[(2S)-2-Methylazetidin-1-yl]-6-(trifluoromethyl)pyrimidin-4-yl]pyrazol-1-yl]-1-[(3S)-3-methylpiperazin-1-yl]ethanone]	0.0386 µM	0.103 µM
C[C@H]1CNCCN1C(=O)Cn1cc(-c2cc(C(F)(F)F)nc(N3CC[C@@H]3C)n2)cn1 [Example 30, 2-[4-[2-[(2S)-2-Methylazetidin-1-yl]-6-(trifluoromethyl)pyrimidin-4-yl]pyrazol-1-yl]-1-[(2S)-2-methylpiperazin-1-yl]ethanone]	0.0463 µM	0.0578 µM
C[C@H]1CCN1c1nc(-c2cnn(CC(=O)N3CCNC(C)(C)C3)c2)cc(C(F)(F)F)n1 [Example 31, 1-(3,3-Dimethylpiperazin-1-yl)-2-[4-[2-[(2S)-2-methylazetidin-1-yl]-6-(trifluoromethyl)pyrimidin-4-yl]pyrazol-1-yl]ethanone]	0.0347 µM	0.0705 µM
C[C@@H]1CN(C(=O)Cn2cc(-c3cc(C(F)(F)F)nc(N4CC[C@@H]4C)n3)cn2)[C@@H](C)CN1 [Example 32, 1-[(2S,5R)-2,5-Dimethylpiperazin-1-yl]-2-[4-[2-[(2S)-2-methylazetidin-1-yl]-6-(trifluoromethyl)pyrimidin-4-yl]pyrazol-1-yl]ethanone]	0.0133 µM	0.0415 µM
C[C@H]1CCN1c1nc(-c2cnn(C3CNC3)c2)cc(C(F)(F)F)n1 [Example 33, 4-[1-(Azetidin-3-yl)pyrazol-4-yl]-2-[(2S)-2-methylazetidin-1-yl]-6-(trifluoromethyl)pyrimidine]	0.0049 ± 0.00131 µM	0.00363 ± 0.00113 µM
C[C@H]1CCN1c1nc(-c2cnn(C3CN(C)C3)c2)cc(C(F)(F)F)n1 [Example 34, 2-[(2S)-2-Methylazetidin-1-yl]-4-[1-(1-methylazetidin-3-yl)pyrazol-4-yl]-6-(trifluoromethyl)pyrimidine]	0.00371 ± 0.000178 µM	0.00541 ± 0.00613 µM
C[C@H]1[C@H](O)CN1c1nc(-c2cnn(C3CN(C)C3)c2)cc(C(F)(F)F)n1 [Example 35, (2S,3R)-2-Methyl-1-[4-[1-(1-methylazetidin-3-yl)pyrazol-4-yl]-6-(trifluoromethyl)pyrimidin-2-yl]azetidin-3-ol]	0.00263 µM	0.00159 µM
